# Experimental data from US20090258863A1, “Method for treatment of amyotrophic lateral sclerosis using talampanel” (priority 2008, published 2009).
# Assays:
# [1] = test system: GABA receptor complex; conditions: Tarnawa et al. 1989; cited from earlier work
# [2] = test system: N-acetyltransferse NAT2 isozymes; assay: Previous clinical trial: N-acetylation of talampanel by NAT2; type: in vivo, human
# Excerpt: N-acetylation was identified as one metabolic pathway of talampanel, catalyzed by N-acetyltransferse NAT2 isozymes. A genetic polymorphism in the NAT2 gene affects the acetylation rate. […] The three common slow acetylator alleles identified are NAT2*5A, NAT2*6A and NAT2*7A. The NAT2*5 alleles have the greatest reductions in metabolic activation while NAT2*6 alleles have more moderate reductions and NAT2*7 alleles have the smallest, but yet significant, reductions. The frequency of NAT2 slow acetylators (about 2-10% in Asian, 60-70% in Caucasians, 30-40% in Africans) and NAT2 fast acetylators (about 40-60% in Asian, 3-15% in Caucasian, 10-25% in Africans) varies markedly with ethnicity.
# [3] = test system: motor neurons; conditions: in vitro; cited from earlier work
# [4] = test system: mouse model of ALS; conditions: Van Damme et al. 2003; cited from earlier work
# [5] = test system: subjects with ALS; assay: Example 3: another clinical trial according to the procedure of Example 1; type: in vivo, human
# Experimental: (§1) A subject is assessed for study eligibility at a screening visit (one to 4 weeks prior to baseline). Subjects who are found eligible to participate in the study are randomized in a 2:1:2 ratio into one of the following three treatment groups based on a randomization scheme with blocks stratified by center: • 1. 50 mg (25 mg capsule×2) talampanel t.i.d. (150 mg daily) • 2. 25 mg (12.5 mg capsule×2) talampanel t.i.d. (75 mg daily) • 3. Placebo
# (§2) After undergoing randomization subjects receive their first dose of study treatment on site. There are two possible escalation periods to reach maximal dose of 6 capsules per day, as follows: • Screening Period Up to 4 weeks but not less than 1 week. The period between screening visit and baseline visit. During this time period all relevant data for the assessment of subjects eligibility should be collected and reviewed i.e. lab results, ECG, medical history etc. • First Escalation Period: A period of 4 to 6 weeks, following screening period. This period starts at baseline visit, following randomization; • Second Escalation Period: A period of 2 weeks, this period starts at week 10 visit and ends at week 12 visit. • Maintenance Period: A time period of 46 to 48 weeks, following the first escalation period, starting after reaching maximal achieved dose in the first escalation period. During this period oral administration of talampanel 25 mg t.i.d., 50 mg t.i.d. (or maximal achieved dose) or matching oral placebo is maintained.
# (§3) The first escalation period is a period of 4-6 weeks, following randomization. The dose escalation plan for the 25 mg and 50 mg t.i.d. dose levels, respectively, is as follows: • First week: from baseline visit to week 1 (telephone visit): Three capsules (37.5 mg or 75 mg daily) one each a.m., mid-day and p.m. dosing. • Second week: from week 1 (telephone visit) to week 2 (telephone visit): Four capsules (50 mg or 100 mg daily) one each a.m. & mid-day, two at p.m. dosing. • Third week: from week 2 (telephone visit) to week 3 (telephone visit): Five capsules (62.5 mg or 125 mg daily) two at a.m. one in mid-day and two at p.m. dosing. • Fourth week: from week 3 (telephone visit) to week 4 on site visit: Six capsules (75 mg or 150 mg daily) two at each a.m., mid-day and p.m. dosing.
# (§4) At in-clinic visits the following are assessed: • Revised ALS Functional Rating Scale (ALSFRS-R) (screening, baseline, weeks 4-6, 12, 26, 40, 52/ET and unscheduled) • Slow VC (screening, baseline, weeks 4-6, 12, 26, 40, 52/ET and unscheduled) • Manual Muscle Testing (MMT) (baseline, weeks 12, 26, 40, 52/ET and unscheduled) • ALS-Specific Quality of life (ALSSQoL) scale (baseline, weeks 26, 52/ET) [US and Canada Only] • EuroQol-5 Dimensions (EQ-5D) health outcomes scale (baseline, weeks 4-6, 12, 26, 40 and 52/ET) • Health Care Resource Utilization Questionnaire for ALS (baseline, weeks 4-6, 12, 26, 40, 52/ET) • Caregiver burden questionnaire, Zarit Burden Interview (ZBI) [caregiver] (Baseline, weeks 12, 26, 40, 52/ET) • Laboratory (screening, baseline, weeks 4-6, 12, 26, 40, 52/ET and unscheduled) • ECG (screening, baseline (3 times), weeks 4-6, 12, 26, 40, 52/ET and unscheduled) • Physical examination (screening, baseline, weeks 4-6, 12, 26, 40 and 52/ET and unscheduled) • Vital signs and weights (screening, baseline, weeks 4-6, 12, 26, 40 and 52/ET and unscheduled) • Check of concomitant medications, AEs and compliance • Pharmacokinetics (PK): Safety Pharmacokinetics (PK) blood samples are taken after at least 3 days on the maximal achieved dose at end of first escalation period at week 4-6 (pre-dose, anytime in the range of 0.5-2 hours post-dose and anytime in the range of 2-4 hours post dose with at least 1 hour difference between the 2 post dose samples) and at week 12 (pre-dose, anytime in the range of 0.5-2 hours post-dose and anytime in the range of 2-4 hours post dose with at least 1 hour difference between the 2 post dose samples). […]
# [6] = test system: AMPA subtype of glutamate excitatory amino acid receptors; conditions: AMPA antagonist; cited from earlier work
# [7] = test system: ALS; assay: Pilot study of talampanel in ALS, 50 mg t.i.d. vs placebo; type: in vivo, human; conditions: placebo −10.2, p=0.08, positive trend
# Experimental: A pilot study of talampanel in ALS compared 50 mg t.i.d of talampanel to placebo. The study found a positive trend in the ALSFRS scores of talampanel treated relative to placebo (average score −7.1 vs. −10.2, p=0.08).
# [8] = test system: subjects with ALS; assay: Example 2: another clinical trial according to the procedure of Example 1; type: in vivo, human
# Experimental: as §1, §2, §3, §4
# [9] = test system: subjects with ALS; assay: Example 4: another clinical trial according to the procedure of Example 1; type: in vivo, human
# Experimental: as §1, §2, §3, §4
# [10] = Prior clinical trials with talampanel: safety and tolerability; conditions: previous clinical trials
# Experimental: (§5) In this study, the daily dose is increased by 12.5 mg or 25 mg daily each week to reach 75 mg or 150 mg daily (25 mg t.i.d. or 50 mg t.i.d.) respectively, at the 4th to 6th week or at the 11th to 12th week if needed.
# [11] = human, in vivo
# Experimental: as §5
# [12] = test system: ALS patients; conditions: cited from earlier work
# [13] = test system: motor neurons; conditions: organotypic spinal cord slice model; cited from earlier work
# [14] = 50 mg t.i.d., statistically significant
# [15] = talampanel group, dose not stated, vs placebo
smiles,measurement,setting,value
CC1=NN=C(c2ccc(N)cc2)c2cc3c(cc2C1)OCO3 [GYKI-52466],"1,4-benzodiazepine (diazepam-like) activity at the GABA receptor complex",[1],"no classical 1,4-benzodiazepine (that is, “diazepam-like”) activity"
CC(=O)Nc1ccc(C2=NN(C(C)=O)C(C)Cc3cc4c(cc32)OCO4)cc1 (stereo not drawn) [NAC talampanel],measurable levels of NAC talampanel by acetylator status,"[2]; human, in vivo","seen primarily in fast acetylator subjects, but not in slow acetylators"
NS(=O)(=O)c1cccc2c1c([N+](=O)[O-])cc1nc(O)c(O)nc12 [NBQX],kainate induced calcium entry into motor neurons,[3],blocked
same,prolonged survival in ALS mice,[4],14 days
CC(=O)N1N=C(c2ccc(N)cc2)c2cc3c(cc2C[C@H]1C)OCO3 [talampanel],decrease in the slopes of ALSFRS-R as compared to placebo,[5]; 25 mg t.i.d.,25%
same,"risk of either death, tracheostomy, or permanent assisted ventilation",[5]; 25 mg t.i.d.,reduction
same,adjusted mean change from baseline in MMT across visits,[5]; 50 mg t.i.d vs placebo,decrease
same,decrease in the change in ALSFRS-R from baseline to LOV in comparison to placebo,[5]; 50 mg t.i.d.,25%
same,"risk of either death, tracheostomy, or permanent assisted ventilation",[5]; 50 mg t.i.d.,decrease
same,adjusted mean change from baseline in Slow VC across visits,[5]; 50 mg t.i.d. vs placebo,decrease
same,slopes of MMT,[5]; 50 mg t.i.d. vs placebo,decrease
same,slopes of Slow VC,[5]; 50 mg t.i.d. vs placebo,decrease
same,decrease in the slopes of ALSFRS-R as compared to placebo,[5]; [14],25%
same,change in MMT from baseline to LOV,[5]; [15],decrease
same,potency relative to GYKI-52466,[6],more potent
same,"ALSFRS scores, average score",[7],−7.1
same,decrease in the slopes of ALSFRS-R as compared to placebo,[8]; 25 mg t.i.d.,20%
same,"risk of either death, tracheostomy, or permanent assisted ventilation",[8]; 25 mg t.i.d.,reduction
same,decrease in the change in ALSFRS-R from baseline to LOV in comparison to placebo,[8]; 50 mg t.i.d.,20%
same,"risk of either death, tracheostomy, or permanent assisted ventilation",[8]; 50 mg t.i.d.,decrease
same,adjusted mean change from baseline in MMT across visits,[8]; 50 mg t.i.d. vs placebo,decrease
same,adjusted mean change from baseline in Slow VC across visits,[8]; 50 mg t.i.d. vs placebo,decrease
same,slopes of MMT,[8]; 50 mg t.i.d. vs placebo,decrease
same,slopes of Slow VC,[8]; 50 mg t.i.d. vs placebo,decrease
same,decrease in the slopes of ALSFRS-R as compared to placebo,[8]; [14],20%
same,change in MMT from baseline to LOV,[8]; [15],decrease
same,decrease in the slopes of ALSFRS-R as compared to placebo,[9]; 25 mg t.i.d.,30%
same,"risk of either death, tracheostomy, or permanent assisted ventilation",[9]; 25 mg t.i.d.,reduction
same,decrease in the change in ALSFRS-R from baseline to LOV in comparison to placebo,[9]; 50 mg t.i.d.,30%
same,"risk of either death, tracheostomy, or permanent assisted ventilation",[9]; 50 mg t.i.d.,decrease
same,adjusted mean change from baseline in MMT across visits,[9]; 50 mg t.i.d. vs placebo,decrease
same,adjusted mean change from baseline in Slow VC across visits,[9]; 50 mg t.i.d. vs placebo,decrease
same,slopes of MMT,[9]; 50 mg t.i.d. vs placebo,decrease
same,slopes of Slow VC,[9]; 50 mg t.i.d. vs placebo,decrease
same,decrease in the slopes of ALSFRS-R as compared to placebo,[9]; [14],30%
same,change in MMT from baseline to LOV,[9]; [15],decrease
same,N-acetylation dependence on NAT2 activity,[2]; metabolic pathway,highly dependent on NAT2 activity
same,adverse events when the dose is gradually increased over time,[10],reduced
same,safety and tolerability of the dose,[11],safe and tolerated
CC1(C)O[C@@H]2[C@@H](CO[C@@]3(COS(N)(=O)=O)OC(C)(C)O[C@@H]23)O1 [topiramate],benefit in clinical trial in ALS patients,[12]; Cudkowicz et al. 2003,no benefit
same,adverse events in patients,[12]; including dramatic weight loss,significant adverse events
same,protection of motor neurons,[13],protected motor neurons
